How the values were obtained:
[1] = tested on: BiP, 293T cells; assay: Western blot for BiP; format: cell-based, human; conditions: DTT 0.03-2 mM, 24 h, dose dependent
Procedure: (§1) Fold induction is calculated with respect to the control non-infected/non-treated cells. […] Blot is also probed with Gluc antibody as well as alpha-tubulin antibody for equal loading. […] The mean±S.E.M. is presented on the graphs (n=3), with *p<0.01 as compared to the non-treated cells and as calculated by the student's t-Test. NS=not significant
Western blot. Total cell lysates were prepared in lysis buffer containing 150 mM NaCl, 50 mM TRIS, pH 8.0, 1% NP-40, 0.5% deoxycholate, 0.1% SDS, and protease inhibitors (PI Complete; Boehringer Mannheim, Indianapolis, Ind.). Forty μg protein were electrophoresed in 12.5% SDS-polyacrylamide gels, and transferred to nitrocellulose membranes (Bio-Rad). […] Membranes were then incubated with horseradish peroxidase (HRP) conjugated to secondary antibodies: sheep anti-mouse IgG-HRP (1:10,000) or donkey anti-rabbit IgG-HRP (1:10,000) (Amersham Pharmacia Biotech, Piscataway, N.J.). For protein detection we used SuperSignal West Pico Chemiluminescent Substrate™ (Pierce, Rockford, Ill.).

[2] = tested on: ER stress (Gluc secretion), 293T cells; assay: Real-time monitoring of ER stress with Gluc (Gluc activity in conditioned medium); format: cell-based, human
Procedure: Fold induction is calculated with respect to the control non-infected/non-treated cells. […] The mean±S.E.M. is presented on the graphs (n=3), with *p<0.01 as compared to the non-treated cells and as calculated by the student's t-Test. NS=not significant
Gaussia luciferase for monitoring of ER stress in real-time. Splicing of the XBP-1 mRNA to sXBP1 and expression of BiP protein are generally used as biomarkers for ER stress.

[3] = tested on: spliced XBP-1 mRNA, 293T cells; assay: Real-time qRT-PCR for spliced XBP-1 mRNA; format: cell-based, human
Procedure: as §1
ER stress: total RNA isolation, reverse transcription and real-time qPCR. 293T cells were plated at 1×10^6 cells/mL in a 12-well plate. Cells were treated with different concentrations of DTT (Sigma) for 4 h. Total RNA was isolated using the RNeasy mini kit (Quiagen, Valencia, Calif.) and concentration was determined by measuring the OD260 using a spectrophotometer (Bio-Rad, Hercules, Calif.). Reverse transcription was performed on 200 ng RNA (in 10 μl) at 37° C. for 60 min using an Omniscript reverse transcription kit (Quiagen). Two μL of each cDNA sample were used for real-time PCR. Biological triplicates were measured twice. The following primers were used: Forward 5′-[…]-3′ (SEQ ID NO: 10) and Reverse 5′-[…]-3′ (SEQ ID NO: 11). These primers were designed to span a 26 bp intron in the unspliced XBP1 mRNA [12]. […] The fold increase was calculated based on Ct values of treated cells relative to control non-infected and non-treated cells normalized to the values for GAPDH endogenous control.

[4] = tested on: secretory pathway (Gluc secretion), 293T cells; assay: Blocking of secretory pathway: Gluc activity in conditioned medium of drug-treated cells; format: cell-based, human; conditions: 24 h, 5 μg/ml BFA, 3 μg/ml monensin A, 10 μg/ml nocodazole, 5 μg/ml cytochalasin B
Procedure: Cells were treated for 24 h with different drugs which interfere with the secretory pathway. […] Scale bar, 10 μm. Luciferase activity. […] For Fluc detection, 450 μM Beetle D-luciferin (Molecular Imaging Products, Ann Arbor, Mich.) was added directly to the viable cells, in a 96 well plate and measured as above. The signal was measured for 10 sec and integrated over 2 sec in both cases. Blocking of secretory pathway.

[5] = tested on: secretory pathway (Gluc secretion); assay: Bioluminescence from media of Gluc expressing cells treated with secretory pathway inhibitors (FIG. 11); format: cell-based
Description: Nocodazone disrupts microtubule function and BrefeldinA disrupts golgi function.
This confirms Gluc is being secreted the secretory pathway.

[6] = tested on: secretory pathway (Gluc-YFP secretion); assay: Gluc-YFP fusion: secretion and localization after BFA or nocodazole; format: cell-based, human; conditions: for secretion of Gluc-YFP luciferase activity: cells expressing Gluc-YFP, conditioned medium 24 h after treatment
Procedure: Blocking of secretory pathway. […] Forty-eight h post-infection, cells were treated with either 5 μg/ml BFA, 3 μg/ml monensin A (MonA), 10 μg/ml nocodazole (Noc) or 5 μg/ml cytochalasin B (CytB) all obtained from Sigma.

[7] = tested on: unfolded protein response (GRP78); assay: Immunoblotting for GRP78, unfolded protein response (FIG. 12); format: cell-based; conditions: cells treated with tunicamycin
Procedure: Immunobloting for GRP76 of protein lysates from cells not expressing Gluc in the absence (untreated) or presence of tunicamycin, an agent which upregulates the UPR, compared with untreated cells expressing the Gluc-YFP conjugate protein.
To assess the effect of Gluc expression on cell physiology and to ask if Gluc expression triggers an ER stress response and/or induces the unfolded protein response (UPR), cells were treated with tunicamycin, an agent which upregulates the UPR in the presence or absence of Gluc expression.

Compound	decrease of Gluc secretion into the conditioned medium [4]	bioluminescence from the media compared to untreated cells [5]	secretion of Gluc-YFP luciferase activity [6]	also measured
O[C@H](CS)[C@H](O)CS (racemic) [DTT, dithiothreitol]				amount of BiP [1]: increased; Gluc secretion in the conditioned medium over time ([2]; 1 mM DTT, real-time monitoring, started to recover after 4 h, normal level after 24 h): complete inhibition of secretion for the first 3 h; secretion of Gluc ([2]; DTT 0.03-2 mM, 4 h): decrease; extent of XBP-1 mRNA splicing ([3]; DTT 0.03-2 mM, 4 h, dose dependent): increased
C[C@H]1CCC/C=C/[C@@H]2C[C@H](O)C[C@H]2[C@H](O)/C=C/C(=O)O1 [BFA, brefeldinA]	about 90%	reduced	blocked to the same extent as for Gluc	localization of Gluc-YFP fusion protein ([6]; real-time confocal microscopy on live cells): trapped in the ER
C=C1[C@@H](C)[C@H]2[C@H](Cc3ccccc3)NC(=O)[C@]23OC(=O)/C=C/[C@H](O)CCC[C@@H](C)C/C=C/[C@H]3[C@@H]1O [cytochalasin B]	~30%			
CC[C@@]1([C@@H]2O[C@@H]([C@H]3O[C@@](O)(CO)[C@H](C)C[C@@H]3C)C[C@@H]2C)CC[C@H]([C@]2(C)CC[C@]3(C[C@H](O)[C@@H](C)[C@@H]([C@@H](C)[C@@H](OC)[C@H](C)C(=O)O)O3)O2)O1 [monensin A]	~65%			
COC(=O)Nc1nc2ccc(C(=O)c3cccs3)cc2[nH]1 [nocodazole]	~75%	reduced	blocked to the same extent as for Gluc	
tunicamycin				decrease in Gluc secretion ([2]; tunicamycin 3 μg/ml for 4 h): over 90%; expression of GRP78 [7]: detected; increase in spliced XBP-1 message ([3]; tunicamycin 3 μg/ml for 4 h): 9 fold
